Calls of active or inactive are those of the source.
Tests used:
[1] = target: Kallikrein-7 (Homo sapiens, UniProt P49862); experiment: Fluorescence Intensity-based biochemical primary high throughput dose response assay to identify activators of kallikrein-7 (K7) zymogen.
[2] = luciferase reporter signal reduction – luminescence, H4-C neuroglioblastoma cells, dose response (AID 2458); format: functional, cell-based;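 note: H4 neuroglioblastoma cells stably carrying a luciferase reporter gene fusion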
[3] = cells; format: functional, cell-based
[4] = alpha-synuclein stem-loop translation blockers – luminescence, H4 neuroglioblastoma cells, dose confirmation, confirmation (AID 2454); format: functional, cell-based;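 note: H4 neuroglioblastoma cells carrying an alpha-synuclein 5'UTR luciferase reporter; potency for inhibition of the luciferase signal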
[5] = Luminescence Cell-Based Dose Response HTS to Identify Inhibitors of 5'UTR Stem-Loop Driven Prion Protein mRNA Translation in H4 Neuroglioblastoma Cells. [Related pubchem assays: 1827 (Project Summary), 1813 (Primary HTS)]; format: functional
[6] = alpha-synuclein stem-loop luciferase translation blockers – H4 neuroglioma cells, luminescence, confirmation (AID 1988); format: functional, cell-based
[7] = HEK-293T viability loss after treatment – luminescence, T-cell screen hits, cytotoxicity control for TCR NF-kB inhibitor project, dose response (AID 489026); format: functional, cell-based;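 note: cells exposed to compound about 14 hours before the viability readout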
[8] = Luminescence-based dose response cell-based high throughput screening assay for cytotoxic compounds using the IEC-6 intestinal epithelial cell line. [Related pubchem assays: 1858 (Summary AID.), 1825 (Counterscreen.), 1907 (Confirmation screen.)]; format: functional
[9] = target: T1, Long-chain-fatty-acid--AMP ligase FadD28 (Mycobacterium tuberculosis, UniProt P9WQ59); experiment: Fluorescence polarization aasay to screen for inhibitors that compete for the binding of FadD28 to a bisubstrate Measured in Biochemical System Using Plate Reader - 2147-01_Inhibitor_Dose_CherryPick_Activity.; format: functional, Mycobacterium tuberculosis H37Rv
T1 sequence (P9WQ59 whole entry): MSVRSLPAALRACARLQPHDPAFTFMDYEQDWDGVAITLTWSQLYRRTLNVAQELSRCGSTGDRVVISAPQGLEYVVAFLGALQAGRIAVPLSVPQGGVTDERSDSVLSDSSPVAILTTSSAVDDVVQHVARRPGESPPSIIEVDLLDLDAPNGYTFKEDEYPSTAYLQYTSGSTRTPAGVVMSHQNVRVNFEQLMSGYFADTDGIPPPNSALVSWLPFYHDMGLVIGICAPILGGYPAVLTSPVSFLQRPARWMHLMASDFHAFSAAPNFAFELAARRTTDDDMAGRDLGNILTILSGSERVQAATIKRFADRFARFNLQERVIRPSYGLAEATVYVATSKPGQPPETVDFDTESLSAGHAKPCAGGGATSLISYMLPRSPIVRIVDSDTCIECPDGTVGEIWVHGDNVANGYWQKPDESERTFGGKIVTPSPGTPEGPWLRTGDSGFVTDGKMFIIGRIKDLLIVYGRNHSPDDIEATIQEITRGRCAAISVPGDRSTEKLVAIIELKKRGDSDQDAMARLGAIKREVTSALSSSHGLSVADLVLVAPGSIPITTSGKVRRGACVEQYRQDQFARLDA

[10] = Dd2 malaria parasite growth inhibition potency – SYBR Green, dry powder samples, dose response (AID 1159566); format: functional, cell-based;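 note: potency for growth inhibition with lower SYBR green DNA signal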
[11] = growth inhibition of PfATP4-mutant resistant parasites – NITD609-resistant line, SYBR Green, dry powder, dose response (AID 1159571); format: functional, cell-based;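 note: parasites synchronized at ring stage by sorbitol before testing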
[12] = growth inhibition of yeast DHODH-expressing 3D7 parasites – SYBR Green, dry powder samples, dose response (AID 1159570); format: functional, cell-based;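 note: parasite growth measured after 72 hours of compound exposure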
[13] = toxicity to human HepG2 hepatoma cells – cell-based, plate reader, dry powder samples, cytotoxicity control, dose response (AID 1159569); format: functional;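 note: inhibitor potency with signal falling toward the positive control level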
[14] = P. falciparum Dd2 growth inhibitors, dose response, SYBR Green, cherry-picked samples (AID 1159567); format: functional, cell-based
[15] = NIH3T3 cell viability loss – ATP luminescence, mouse fibroblasts, counter-screen, dose response (AID 2010); format: functional, cell-based;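 note: cells exposed to compound for about 90 hours before reading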
[16] = target: Prothrombin (Homo sapiens, UniProt P00734); experiment: Thrombin 1536 HTS Dose Response Confirmation. [Related pubchem assays: 1046 (Thrombin 1536 HTS; hits were confirmed in this assay)]; format: functional
[17] = Trypanosoma cruzi growth suppression in host cells – NIH3T3 host cells, beta-gal luminescence, confirmation (AID 2044); format: functional, cell-based;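 note: intracellular parasites grown in NIH/3T3 mouse fibroblasts as host cells; luminescent beta-galactosidase reporter signal from transgenic T. cruzi replicating inside host cells; inhibitors lower the luminescence signal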
[18] = cells; format: functional, cell-based; remark: listed apart in the source
[19] = blockade of melanocortin 4 receptor signaling – cell-based, plate reader, cherry pick, counter-screen for LGR2 antagonist project, dose response (AID 743444); format: functional;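 note: transfected HEK 293 cells stimulated with alpha-MSH peptide; potency of inhibitors of the alpha-MSH evoked signal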
[20] = target: T2, Nuclear receptor subfamily 0 group B member 1 (Homo sapiens, UniProt P51843); format: functional, cell-based;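 note: HEK293T cells transfected with SF-1 and DAX-1 plus StAR promoter luciferase reporter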
T2 sequence (P51843 whole entry): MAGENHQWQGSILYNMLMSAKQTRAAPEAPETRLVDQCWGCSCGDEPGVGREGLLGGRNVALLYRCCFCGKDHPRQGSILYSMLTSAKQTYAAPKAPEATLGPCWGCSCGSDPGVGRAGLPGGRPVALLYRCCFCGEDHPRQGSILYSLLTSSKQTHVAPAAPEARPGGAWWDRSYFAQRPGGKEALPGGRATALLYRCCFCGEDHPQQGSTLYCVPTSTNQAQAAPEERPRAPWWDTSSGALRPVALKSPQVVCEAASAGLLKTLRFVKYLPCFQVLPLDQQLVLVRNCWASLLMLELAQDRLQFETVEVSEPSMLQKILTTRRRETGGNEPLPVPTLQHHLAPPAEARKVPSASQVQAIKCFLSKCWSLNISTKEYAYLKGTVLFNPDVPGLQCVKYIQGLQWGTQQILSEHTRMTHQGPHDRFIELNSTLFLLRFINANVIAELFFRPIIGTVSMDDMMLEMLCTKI

[21] = blockers of bursicon-stimulated LGR2 cAMP reporter – cell-based, HEK293, CRE-luciferase reporter, cherry pick, set 2, dose response (AID 743343); format: functional;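 note: transfected cells were stimulated with diluted bursicon conditioned medium after compound addition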
[22] = viability loss in HEK293 cells – cell-based, plate reader, cherry-picked samples, cytotoxicity control, dose response (AID 743446); format: functional
[23] = target: Major prion protein (Homo sapiens, UniProt P04156); format: functional, cell-based
[24] = cells
[25] = HCT116 cell viability decrease, GSK3B pretreatment – CellTiter-Glo, IC50, dose response (AID 1117339); format: functional; settings: HCT-116
[26] = RKO cell viability reduction, dose response, CellTiter-Glo luminescence (AID 1117322); format: functional
[27] = cytotoxicity toward Colo320 cells – cell-based, CellTiter-Glo luminescence, IC50, dose response (AID 1117334); format: functional; settings: COLO 320
[28] = cytotoxicity toward HCT116 cells – cell-based, CellTiter-Glo luminescence, IC50, dose response (AID 1117332); format: functional; settings: HCT-116
[29] = Reduced DLD-1 viability, concentration-response, CellTiter-Glo luminescence (AID 1117352); format: functional
[30] = SNU-C1 cell viability reduction, dose response, CellTiter-Glo luminescence (AID 1117323); format: functional, cell-based
[31] = cytotoxicity toward HT-29 cells – cell-based, CellTiter-Glo luminescence, IC50, dose response (AID 1117330); format: functional
[32] = CellTiter-Glo luminescence survival assay, SW480 colon tumor line, concentration-response curve, half-maximal inhibitory concentration (AID 1117338); format: functional
[33] = cells; remark: listed apart in the source
[34] = target: T3, Heat shock factor protein 1 (Mus musculus, UniProt P38532); experiment: decrease of HSF1-responsive luciferase luminescence – cell-based, NIH3T3, dose retest, confirmation (AID 2382); format: functional;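 note: NIH3T3 fibroblasts with HSF1-driven luciferase reporter stressed by proteasome inhibitor MG132; luminescence from HSF1-driven luciferase expression after 8 hours of MG132 stress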
T3 sequence (P38532 whole entry): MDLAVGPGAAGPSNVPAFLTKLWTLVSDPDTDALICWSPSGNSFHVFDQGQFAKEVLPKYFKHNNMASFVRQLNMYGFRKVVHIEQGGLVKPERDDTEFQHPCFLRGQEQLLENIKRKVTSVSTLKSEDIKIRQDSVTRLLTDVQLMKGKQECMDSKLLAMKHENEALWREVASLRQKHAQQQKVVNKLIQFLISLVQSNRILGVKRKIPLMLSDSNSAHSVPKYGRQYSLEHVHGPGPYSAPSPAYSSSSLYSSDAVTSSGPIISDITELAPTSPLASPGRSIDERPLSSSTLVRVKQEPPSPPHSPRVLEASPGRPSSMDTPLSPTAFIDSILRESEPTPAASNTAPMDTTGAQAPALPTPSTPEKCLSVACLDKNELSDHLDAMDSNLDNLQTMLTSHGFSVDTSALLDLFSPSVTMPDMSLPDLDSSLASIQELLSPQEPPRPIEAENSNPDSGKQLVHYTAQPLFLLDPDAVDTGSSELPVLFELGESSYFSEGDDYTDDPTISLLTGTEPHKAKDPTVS

## O=c1c2cc(N3CCOCC3)ccc2[nH]c(=S)n1CCCN1CCCCC1
[1]
  EC50: 29.7 µM (inactive)

## CC/C=C/CC(=O)N[C@@H](c1ccccc1)[C@@H](O)C(=O)O[C@H]1C[C@@]2(O)[C@@H](OC(=O)c3ccccc3)C3[C@](C)(C(=O)[C@H](OC(C)=O)C(=C1C)C2(C)C)[C@@H](O)C[C@H]1OC[C@@]31OC(C)=O (stereo not given in full)
[2]
  EC50: 0.062 µM (active)
[3]
  EC50: 0.307 µM (active)
[4]
  EC50: 0.021 µM (active)
[5]
  EC50: < 0.1 µM (active)
[6]
  EC50: < 0.1 µM (active)
[7]
  IC50: > 80 µM (inactive)
[8]
  IC50: 0.0795 µM (active)

## O=C(COC(=O)c1cccc(NS(=O)(=O)c2ccc(F)c(F)c2)c1)NC(=O)NC1CCCCC1
[9]
  AC50: 19.9 µM (active)

## O=C(Nc1cccc(F)c1)N1CCCCN2[C@@H](CO)[C@H](c3ccc(C#Cc4cccnc4)cc3)[C@@H]2C1
[10]
  AC50: 0.368 µM (active)
[11]
  AC50: 0.425 µM (active)
[12]
  AC50: 0.247 µM (active)
[13]
  AC50: 28.4 µM (active)
[14]
  AC50: 0.606 µM (active)

## Cc1cc(C)c2c3c(sc2n1)C(c1cccc(F)c1)C(C#N)=C(N)O3 (stereo not given)
[15]
  EC50: > 30 µM (not active)
[16]
  IC50: > 50 µM (not active)
[17]
  EC50: 0.191 µM (active)

## Cc1cc(C(=O)CSc2nnc(N)s2)c(C)n1Cc1cccs1
[18]
  IC50: > 67.5 µM (inactive)
[19]
  AC50: 4.27 µM (active)
[20]
  IC50: > 0.278 µM (active)
[21]
  AC50: 3.93 µM (active)
[22]
  AC50: > 52 µM (inactive)

## COc1ccc(OC)c(C2NC(=O)N(C)C(C)=C2C(=O)OCc2ccccc2)c1 (stereo not given)
[23]
  IC50: 6.04 µM (active)
[24]
  IC50: > 138 µM (inactive)

## COCC(C)N(C(=O)CCl)c1c(C)csc1C (stereo not given)
[25]
  IC50: > 20 µM (inactive)
[26]
  IC50: > 20 µM (inactive)
[27]
  IC50: > 20 µM (inactive)
[28]
  IC50: > 20 µM (inactive)
[29]
  IC50: > 20 µM (inactive)
[30]
  IC50: > 20 µM (inactive)
[31]
  IC50: > 20 µM (inactive)
[32]
  IC50: > 20 µM (inactive)

## CCCCCCCCCCCCCCCCC(C(=O)O)C(O)(CC(=O)O)C(=O)O (stereo not given)
[25]
  IC50: 4.34 µM (active)
[26]
  IC50: 3.48 µM (active)
[27]
  IC50: 1.36 µM (active)
[28]
  IC50: 8.68 µM (inactive)
[29]
  IC50: 4.28 µM (active)
[30]
  IC50: 1.36 µM (active)
[31]
  IC50: 4.1 µM (active)
[32]
  IC50: 1.2 µM (active)

## OC1CCN(Cc2cccc(Oc3ccccc3)c2)CC1
[15]
  EC50: > 30 µM (not active)
[33]
  EC50: 0.073 µM (active)
[17]
  EC50: < 0.1 µM (active)
[34]
  EC50: > 195 µM (not active)

## CCc1c(O)n(-c2ccccc2)c(SCC(=O)Nc2nc3ccccc3s2)nc1=O
[9]
  AC50: > 100 µM (inactive)
